Test results taken from patent publication US8586747B2, “3,3-dimethyl tetrahydroquinoline derivatives” (Hoffmann-La Roche Inc., priority 2010, dated 2013).

test system: AMP-activated protein kinase (AMPK); assay: ADP Quest assay for AMPK activators; assay type: biochemical; design: key: fold AMPK activation with vs without activator at 30 µM; details: fold of AMPK activation to phosphorylate SAMS peptide without and with an activator at the concentration of 30 µM
How it was run: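 AMPK phosphorylation of SAMS peptide with ATP monitored kinetically at room temperature by ADP Quest fluorescence (ex 530/em 590 nm), reaction started with enzyme. Compounds tested […] in 2-fold dilutions, AMP as reference. E30 is fold activation at 30 µM activator versus none.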

| E30 | SMILES |
| --- | --- |
| 1.29 | CC(C)Oc1ccc(-c2cccc(C3Nc4ccc(C(=O)NS(C)(=O)=O)cc4CC3(C)C)c2)cc1 (stereo not shown) [Example 85, N-[2-(4′-Isopropoxy-biphenyl-3-yl)-3,3-dimethyl-1,2,3,4-tetrahydro-quinoline-6-carbonyl]-methanesulfonamide] |
| 1.3 | Cc1ccc(N2CCN(c3cccc(C4Nc5ccc(C(=O)O)cc5CC4(C)C)c3)CC2)c(C)c1 (stereo not shown) [Example 89, 2-{3-[4-(2,4-Dimethyl-phenyl)-piperazin-1-yl]-phenyl}-3,3-dimethyl-1,2,3,4-tetrahydro-quinoline-6-carboxylic acid] |
| 1.44 | Cc1ccc(N2CCN(c3cccc(C4Nc5ccc(C(=O)NS(C)(=O)=O)cc5CC4(C)C)c3)CC2)c(C)c1 (stereo not shown) [Example 90, N-(2-{3-[4-(2,4-Dimethyl-phenyl)-piperazin-1-yl]-phenyl}-3,3-dimethyl-1,2,3,4-tetrahydro-quinoline-6-carbonyl)-methanesulfonamide] |
| 1.31 | Cc1ccc(N2CCN(c3cccc(C4Nc5ccc(C(=O)NS(=O)(=O)C6CC6)cc5CC4(C)C)c3)CC2)c(C)c1 (stereo not shown) [Example 91, Cyclopropanesulfonic acid (2-{3-[4-(2,4-dimethyl-phenyl)-piperazin-1-yl]-phenyl}-3,3-dimethyl-1,2,3,4-tetrahydro-quinoline-6-carbonyl)-amide] |
| 1.23 | Cc1ccccc1N1CCN(c2cccc(C3Nc4c(cc(F)cc4C(=O)O)CC3(C)C)c2)CC1 (stereo not shown) [Example 92, 6-Fluoro-3,3-dimethyl-2-[3-(4-o-tolyl-piperazin-1-yl)-phenyl]-1,2,3,4-tetrahydro-quinoline-8-carboxylic acid] |
| 1.56 | CC1(C)Cc2c(ccc(Cl)c2C(=O)O)NC1c1cccc(N2CCOCC2)c1 (stereo not shown) [Example 95, 6-Chloro-3,3-dimethyl-2-(3-morpholin-4-yl-phenyl)-1,2,3,4-tetrahydro-quinoline-5-carboxylic acid] |
| 1.5 | CN1CCN(c2cccc(C3Nc4ccc(C(=O)NS(C)(=O)=O)cc4CC3(C)C)c2)CC1 (stereo not shown) [Example 96, N-{3,3-Dimethyl-2-[3-(4-methyl-piperazin-1-yl)-phenyl]-1,2,3,4-tetrahydro-quinoline-6-carbonyl}-methanesulfonamide] |
| 1.46 | CC1(C)Cc2cc(C(=O)NS(=O)(=O)C3CC3)ccc2NC1c1cccc(N2CCNCC2)c1 (stereo not shown) [Example 97, Cyclopropanesulfonic acid [3,3-dimethyl-2-(3-piperazin-1-yl-phenyl)-1,2,3,4-tetrahydro-quinoline-6-carbonyl]-amide] |

Continued, compound first:

| SMILES | E30 |
| --- | --- |
| CC(C)Oc1ccc(-c2cccc(C3Nc4ccc(C(=O)NS(=O)(=O)C5CC5)cc4CC3(C)C)c2)cc1 (stereo not shown) [Example 86, Cyclopropanesulfonic acid [2-(4′-isopropoxy-biphenyl-3-yl)-3,3-dimethyl-1,2,3,4-tetrahydro-quinoline-6-carbonyl]-amide] | 2.74 |
| CC1(C)Cc2cc(C(=O)O)ccc2NC1c1cccc(N2CCN(c3ccc(Cl)cc3)CC2)c1 (stereo not shown) [Example 87, 2-{3-[4-(4-Chloro-phenyl)-piperazin-1-yl]-phenyl}-3,3-dimethyl-1,2,3,4-tetrahydro-quinoline-6-carboxylic acid] | 1.3 |
| CC1(C)Cc2cc(C(=O)NS(C)(=O)=O)ccc2NC1c1cccc(N2CCN(c3ccc(Cl)cc3)CC2)c1 (stereo not shown) [Example 88, N-(2-{3-[4-(4-Chloro-phenyl)-piperazin-1-yl]-phenyl}-3,3-dimethyl-1,2,3,4-tetrahydro-quinoline-6-carbonyl)-methanesulfonamide] | 1.35 |
| CC1(C)Cc2cc(Cl)cc(C(=O)NS(C)(=O)=O)c2NC1c1cccc(N2CCN(c3ccc(Cl)cc3)CC2)c1 (stereo not shown) [Example 93, N-(6-Chloro-2-{3-[4-(4-chloro-phenyl)-piperazin-1-yl]-phenyl}-3,3-dimethyl-1,2,3,4-tetrahydro-quinoline-8-carbonyl)-methanesulfonamide] | 1.32 |
| Cc1ccccc1N1CCN(c2cccc(C3Nc4c(cccc4C(=O)O)CC3(C)C)c2)CC1 (stereo not shown) [Example 94, 3,3-Dimethyl-2-[3-(4-o-tolyl-piperazin-1-yl)-phenyl]-1,2,3,4-tetrahydro-quinoline-8-carboxylic acid] | 1.33 |
